Residues, ends and D or L forms follow the SMILES beside them. *: point of attachment. Cbz = O=C(OCc1ccccc1)*

The target in one experiment is T1, G269S/1278insTATC HexA (Homo sapiens, UniProt P06865, G269S).
T1 construct: host or cells: Tay-Sachs patient fibroblasts, lysed for the MUGS assay
T1 sequence (P06865 89-529 G269S): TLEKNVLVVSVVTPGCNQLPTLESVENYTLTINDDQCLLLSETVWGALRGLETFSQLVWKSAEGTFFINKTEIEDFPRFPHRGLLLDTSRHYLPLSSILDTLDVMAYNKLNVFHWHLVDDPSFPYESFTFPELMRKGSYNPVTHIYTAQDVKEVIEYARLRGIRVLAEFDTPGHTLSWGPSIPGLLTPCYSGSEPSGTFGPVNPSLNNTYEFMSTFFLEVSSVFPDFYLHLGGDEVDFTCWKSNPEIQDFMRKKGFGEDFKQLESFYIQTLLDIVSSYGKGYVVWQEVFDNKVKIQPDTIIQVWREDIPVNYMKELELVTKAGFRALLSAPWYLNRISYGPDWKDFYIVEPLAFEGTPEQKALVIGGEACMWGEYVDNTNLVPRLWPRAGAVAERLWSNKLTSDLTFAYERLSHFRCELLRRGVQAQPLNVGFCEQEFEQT
T1 sequence (P07686 122-556 partner): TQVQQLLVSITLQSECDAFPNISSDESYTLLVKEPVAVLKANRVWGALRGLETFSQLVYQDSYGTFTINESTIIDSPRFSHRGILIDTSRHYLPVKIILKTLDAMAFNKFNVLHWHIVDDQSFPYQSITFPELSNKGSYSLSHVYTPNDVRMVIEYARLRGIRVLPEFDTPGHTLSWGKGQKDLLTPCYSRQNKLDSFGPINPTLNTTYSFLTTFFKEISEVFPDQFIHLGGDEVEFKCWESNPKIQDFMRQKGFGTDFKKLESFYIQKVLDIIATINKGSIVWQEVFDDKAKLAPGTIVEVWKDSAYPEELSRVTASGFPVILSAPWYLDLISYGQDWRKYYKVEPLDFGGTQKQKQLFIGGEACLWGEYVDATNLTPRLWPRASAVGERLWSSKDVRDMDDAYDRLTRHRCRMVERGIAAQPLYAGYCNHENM
The experiment in a line: Hex α-site cell assay in Tay-Sachs fibroblast cell line. The format is cell-based. The conditions noted are these: MG-132 0.8 to 1 μM, 144 h incubation. From the text: We therefore evaluated the ability of these proteostasis regulators to restore partial function to HexA, a heterodimeric enzyme composed of α- and β-subunits that degrades GM2 gangliosides in the lysosome. Mutations in the β-hexosaminidase A α-subunit can cause extensive ERAD of HexA, leading to Tay-Sachs disease (TSD). Jeyakumar et al., Neuropathol Appl Neurobiol 28: 343-357, 2002. HexA activity was studied in a compound heterozygous fibroblast cell line (GM13204), harboring one of the most prevalent β-hexosaminidase A α-subunit mutations (G269S) found in Tay-Sachs patients and a second mutated HexA allele (1278insTATC) with a stop codon. […] Tropak et al., J Biol Chem 279: 13478-13487, 2004.
The Hex α-site cell assay has been previously described. Tropak et al., J Biol Chem 279: 13478-13487, 2004. Cells were plated as described for the GC assay. After 1 to 8 days of incubation the medium was removed, cells were washed with PBS, and lysed with 60 μl of 10 mM citrate/phosphate buffer pH 4.2 (CP buffer) containing 0.5% human serum albumin and 0.5% Triton X-100. 30 μl of aliquots were transferred to a 96-well plate and Hex α-site activity was measured by adding 30 μl of 3.2 mM MUGS in CP buffer to each well and incubating the plates at 37° C. for 1 to 7 hour. The reaction was stopped by adding 200 μl of 0.1 M 2-amino-2-methyl-1-propanol pH 10.5 and the fluorescence was measured (excitation 365 nm, emission 450 nm).

The subject of experiment [1] is GC and chaperone mRNA expression levels. The conditions noted are these: diltiazem 10 μM.

Regarding `CC(C)C[C@@H](C=O)NC(=O)[C@H](CC(C)C)NC(=O)[C@H](CC(C)C)NC(=O)OCc1ccccc1` [MG-132] (Cbz-Leu-Leu-Leu-aldehyde), the “Hex α-site activity as % of cellular WT Hex α-site activity” value on G269S/1278insTATC HexA is recorded as “≈ 18%”.
`COc1ccc([C@@H]2Sc3ccccc3N(CCN(C)C)C(=O)[C@@H]2OC(C)=O)cc1.Cl` [diltiazem, Diltiazem hydrochloride]: the “mRNA expression level of Hsp40” value in experiment [1] (7 days (FIG. 26)) is “similarly increased”. The “GC mRNA expression level vs untreated cells” value in experiment [1] (6 h to 5 d) was “Strictly analogous results”.
